Tests used:
Format in all cases: cell-based, human
[1] = system: Darier keratinocytes (DK); assay: Adherens junction formation in chaperone-treated Darier keratinocytes (immunofluorescence); conditions: for F-actin network organisation / cell shape (polygonal phenotype, characteristic of cell-to-cell adhesion) / staining of AJ components (E-cadherin and catenins) at the plasma membrane: DK pre-treated 24 h with PBA 5 mM or Miglustat 500 μM; for staining of AJ components (E-cadherin and catenins) at the plasma membrane: then 1.2 mM Ca2+
Experimental: (§1) Cell Culture. Keratinocytes were grown in 0.06 mM CaCl2 EpiLife medium (Invitrogen) to 60-80% confluence and then incubated in 1.2 mM CaCl2 EpiLife medium for 4 hours to induce formation of cell-cell contacts. […] Treatments with drugs. For ER stress induction, keratinocytes grown in high Ca^2+ (1.2 mM) medium were incubated with thapsigargin (TG, Sigma) at 1 μM for different time periods. For inhibition of SERCA pump in NK, keratinocytes were pretreated with 100 nM of TG for 30 min in low Ca^2+ (0.06 mM) medium. Medium was removed, and cells were incubated in high Ca^2+ (1.2 mM) medium for an additional 4 hours to induce the formation of cell-cell contacts. […] Immunofluorescence. Keratinocytes were cultured on coverslips, fixed with 4% paraformaldehyde for 30 minutes at room temperature, and permeabilized with 0.2% TritonX-100 in PBS for 10 minutes. After blocking with 1% fetal bovine serum in PBS, cells were incubated with primary antibodies at 4° C. overnight. Subsequently, cells were incubated with the appropriate Alexa-conjugated secondary antibody at room temperature for 1 hour. For actin staining, cells were incubated with phalloidin-TRITC at room temperature for 1 hour. Lastly, coverslips were mounted on glass slides using Vectashield Hard set (Vector laboratories) and examined using a Zeiss LSM 710 confocal microscope with a 40 Plan-Apochromat objective (1.3 oil) or a 63 Plan-Apochromat objective (1.4 oil), together with a 2× zoom.

[2] = system: Darier keratinocytes (DK); assay: ER stress response (eIF2α and IRE1 phosphorylation, Western-Blot) in Darier keratinocytes; conditions: for TG-induced eIF2α phosphorylation: DK pre-treated 24 h with PBA 5 mM or Miglustat 500 μM
Experimental: (§2) Cell Culture. Keratinocytes were grown in 0.06 mM CaCl2 EpiLife medium (Invitrogen) to 60-80% confluence and then incubated in 1.2 mM CaCl2 EpiLife medium for 4 hours to induce formation of cell-cell contacts.
(§3) Treatments with drugs. For ER stress induction, keratinocytes grown in high Ca^2+ (1.2 mM) medium were incubated with thapsigargin (TG, Sigma) at 1 μM for different time periods. For inhibition of SERCA pump in NK, keratinocytes were pretreated with 100 nM of TG for 30 min in low Ca^2+ (0.06 mM) medium. Medium was removed, and cells were incubated in high Ca^2+ (1.2 mM) medium for an additional 4 hours to induce the formation of cell-cell contacts.
(§4) Western-Blot. Keratinocytes were lysed in buffer containing 50 mM Tris (pH8), 120 mM NaCl, 0.5% NP-40, Complete™ protease inhibitors cocktail (Roche) and phosphatase inhibitor cocktail 2 (Sigma) for 30 minutes on ice and pelleted by centrifugation. The supernatant was collected for the quantification of protein amount by the Bradford assay. Equal amounts of soluble protein were added to Laemmli buffer (62.5 mM Tris HCl, pH 6.8, 5% ®-mercaptoethanol, 2% SDS, 10% glycerol, and 0.002% bromophenol blue). Samples were separated by SDS-PAGE and transferred onto Hybond-C extra membrane (GE Healthcare). β-actin immunodetection was used as a loading control. Blots were developed by chemiluminescence (ECL Advance, GE Healthcare or SuperSignal West Dura, Pierce).

[3] = system: Darier keratinocytes (DK); assay: ER morphology in chaperone-treated Darier keratinocytes (immunofluorescence); conditions: DK pre-treated 24 h with PBA 5 mM or Miglustat 500 μM
Experimental: as §3
(§5) Immunofluorescence. Keratinocytes were cultured on coverslips, fixed with 4% paraformaldehyde for 30 minutes at room temperature, and permeabilized with 0.2% TritonX-100 in PBS for 10 minutes. After blocking with 1% fetal bovine serum in PBS, cells were incubated with primary antibodies at 4° C. overnight. Subsequently, cells were incubated with the appropriate Alexa-conjugated secondary antibody at room temperature for 1 hour. […]
(§6) Quantification of intracellular compartment volumes and co-localization. For volume quantifications, all Z-series reconstructions were imaged with a pinhole of 1 Airy Unit with an optimal Z-step. […] Each isosurfaced was selected and the volume statistic recorded. Quantification of the co-localization signals was performed using the Metamorph (Molecular Devices) software. In a single optical section, the surface of the red signal (E-cadherin) that merges with a green signal (Calnexin) was calculated.

[4] = system: Darier keratinocytes (DK); assay: E-cadherin and SERCA2 expression in chaperone-treated Darier keratinocytes; conditions: DK treated with PBA or Miglustat
Experimental: as §4, with “Treatments with drugs. For ER stress induction, keratinocytes grown in high Ca^2+ (1.2 mM) medium were incubated with thapsigargin (TG, Sigma) at 1 μM for different time periods. For inhibition of SERCA pump in NK, keratinocytes were pretreated with 100 nM of TG for 30 min in low Ca^2+ (0.06 mM) medium. Medium was removed, and cells were incubated in high Ca^2+ (1.2 mM) medium for an additional 4 hours to induce the formation of cell-cell contacts. […] Western-Blot.” for “Western-Blot.”

[5] = system: normal keratinocytes (NK); assay: ER stress response (eIF2α phosphorylation, Western-Blot) in normal keratinocytes; conditions: TG 1 μM, high Ca2+ (1.2 mM) medium
Experimental: as §2, §3
as §4, with “Blots were developed by chemiluminescence (ECL Advance, GE Healthcare or SuperSignal West Dura, Pierce).” left out

[6] = system: Darier keratinocytes (DK); assay: XBP1 mRNA splicing (RT-PCR) after TG treatment; conditions: DK compared to NK, TG 1 μM
Experimental: as §3
RT-PCR. RNA was isolated from keratinocytes using TRIzol (Invitrogen) and reverse transcribed using hexamer primers and Moloney murine leukemia virus RT. PCR amplification was performed.

[7] = system: normal keratinocytes (NK); assay: ER volume and cell spreading in TG-treated normal keratinocytes (immunofluorescence, volume quantification); conditions: TG-treated NK compared to untreated NK
Experimental: as §3, §5, §6

[8] = system: normal keratinocytes (NK); assay: Adherens junction formation in TG-pretreated normal keratinocytes (immunofluorescence); conditions: TG-pretreated NK (100 nM, 30 min) cultured in 1.2 mM Ca2+ for 4 hours
Experimental: as §1, with “Lastly, coverslips were mounted on glass slides using Vectashield Hard set (Vector laboratories) and examined using a Zeiss LSM 710 confocal microscope with a 40 Plan-Apochromat objective (1.3 oil) or a 63 Plan-Apochromat objective (1.4 oil), together with a 2× zoom.” left out

[9] = system: normal keratinocytes (NK); assay: E-cadherin retention in the ER (co-localization with calnexin) in TG-treated normal keratinocytes
Experimental: as §3, §5, §6

Structure (SMILES) | effect on E-cadherin localization ([1]; DK, 500 μM, 24 h pre-treatment) | TG-induced eIF2α phosphorylation [2] | ER expansion / perinuclear condensation of the ER [3] | F-actin network organisation [1] | cell shape (polygonal phenotype, characteristic of cell-to-cell adhesion) [1] | staining of AJ components (E-cadherin and catenins) at the plasma membrane [1] | E-cadherin expression [4] | SERCA2 expression [4] | plasma membrane localization of E-cadherin ([1]; DK, lower concentration (100 μM)) | increase of phospho-eIF2α after exposure to thapsigargin ([2]; DK, TG 1 μM, high Ca2+ (1.2 mM) medium) | IRE1 phosphorylation after exposure to thapsigargin ([2]; DK, TG 1 μM, extent higher than in NK) | increase of phospho-eIF2α after exposure to thapsigargin [5] [fold] | spliced, active form of XBP1 mRNA after TG treatment [6] | number of confluent cells per microscopy field [7] | ER volume ([7]; TG 100 nM 30 min) | adherens junction (E-cadherin, catenins, F-actin) organisation [8] | E-cadherin intracellular surface overlapping with the calnexin positive compartment [9]
CCCCN1C[C@H](O)[C@@H](O)[C@@H](O)[C@H]1CO [NB-DGJ] | had not effect |  |  |  |  |  |  |  |  |  |  |  |  |  |  |  | 
O=C(O)CCCc1ccccc1 [PBA, 4-phenylbutyric acid] |  | decreased | restored perinuclear condensation of the ER | cortical bundles of F-actin parallel and closer to the cell membrane | acquired a pronounced polygonal shape | a linear, sharp and more intense pericellular staining of E-cadherin and catenins | neither PBA nor Miglustat increased | neither PBA nor Miglustat increased |  |  |  |  |  |  |  |  | 
CCCCN1C[C@H](O)[C@@H](O)[C@H](O)[C@H]1CO [Miglustat, 1,5-(butylimino)-1,5-dideoxy-D-glucitol] |  | Neither TG-induced eIF2α phosphorylation nor ER expansion were reduced | Neither TG-induced eIF2α phosphorylation nor ER expansion were reduced | polymerization of the F-actin network | all cells present a polygonal phenotype | a narrow, intense, continuous pericellular staining of all AJ components at the plasma membrane | neither PBA nor Miglustat increased | neither PBA nor Miglustat increased | increased plasma membrane localization of E-cadherin only in a limited number of cells |  |  |  |  |  |  |  | 
C/C=C(/C)C(=O)O[C@H]1C(C)=C2[C@H]([C@@H]1OC(=O)CCCCCCC)[C@@](C)(OC(C)=O)C[C@H](OC(=O)CCC)[C@@]1(O)[C@H]2OC(=O)[C@@]1(C)O [TG, thapsigargin] |  |  |  |  |  |  |  |  |  | 2- to 3 fold | increased | 1.5 | increased in DK compared to NK | always smaller | two-fold increase | AJ abnormalities similar to those in DK | significant E-cadherin retention in the ER

— patent publication US20140350049A1, “METHODS AND PHARMACEUTICAL COMPOSITIONS FOR THE TREATMENT OF DARIER DISEASE” (INSERM (INSTITUT NATIONAL DE LA SANTE ET DE LA RECHERCHE …, priority 2011, published 2014)
